Data on four compounds can be found in patent US4241184A, “Secondary alcohol dehydrogenase enzyme and use thereof” (priority 1979, dated 1980).

A short description of experiment [1]: Oxidation of methane and lower alkenes by washed cell suspensions of methane-grown methylotrophic strains. The format is cell-based. Particulars: methane-grown methylotrophic microorganisms. As to the method: The isolates had been maintained on agar plates under an atmosphere of methane and air having a 1:1 v/v gas ratio which had been transferred every two weeks. The gaseous phase of the inoculated flasks was then replaced with a gas mixture comprised of methane and air having a ratio of 1:1 on a v/v basis.
The cells were harvested by centrifugation at 10,000×g. at 4° C. for 30 minutes. The cell pellet was washed twice with a 0.15 M phosphate buffer at a pH of 7.0 (containing 0.002 M MgCl2). The washed cells were then suspended in a 0.15 M phosphate buffer at pH 7.0.
A 0.5 ml sample of each washed cell suspension (2 mg cells) was put into 10 ml vials at 4° C. which were sealed with a rubber cap. The gaseous phase of the vials was removed with vacuum and then was replaced with a gas mixture of the oxidative substrate (e.g., methane) and oxygen at a 1:1 v/v ratio. The vials were then incubated at 30° C. on a rotary shaker at 300 rpm. Samples of product (3 μl) were withdrawn periodically with a microsyringe and the products were analyzed by gas chromatography (ionization flame detector column).
The newly discovered and isolated microorganism strains of the present invention were each grown aerobically in the presence of methane in the manner described above. […]

Experiment [2] concerns P(40) particulate fraction of Methylosinus sp. (CRL-15, NRRL B-11,202). The experiment is described as follows: Oxidation of n-alkenes and n-alkanes by P(40) particulate fraction. The format is biochemical. To be noted: for Rate of Product Formation: substrate oxidized to its epoxide or alcohol, 30° C.
Experiment [3] can be described thus: Propylene- and methane-oxidizing activities in cell fractions P(40), P(80), S(80) of methylotrophs. The format is biochemical. To be noted: in place of NADH. As for the experimental part: The oxidation of methane and propylene by particulate [(P)40 and(P)80] fractions and soluble [S(80)] fraction was measured at 30° C. by estimating the production of methanol and propylene oxide, respectively.
Reaction mixtures were contained in 10 ml vials at 4° C. Vials were sealed with rubber caps. The gaseous phase in the vials was removed using vacuum and then was replaced with a gas mixture of methane or propylene and oxygen at a 1:1, v/v ratio. Oxidation of other gaseous n-alkanes and n-alkenes was examined as described above. For liquid substrates, 10 μl of substrate was used directly. Vials were then incubated at 30° C. on a rotary shaker at 200 RPM.
The column temperature was maintained isothermally at 120° C. The carrier gas flow rate was 30 ml/min. of helium.

In experiment [4] the test system is cell-free particulate fractions derived from the methylotrophic microorganisms. The experiment is described as follows: Conversion of C3-C6 n-alkanes to sec. alcohols by cell-free particulate fractions: inhibitors and electron donors. The format is biochemical. The text has this:
The conditions for preparing the cell suspensions or the cell-free particulate fractions from methane-grown methylotroph microorganisms is the same as described above. […] Tables XXV and XXVI show the conversion of C3 -C6 n-alkanes to the corresponding secondary alcohols using cell suspensions and cell-free particulate fractions, respectively, of methane-grown methylotroph microorganisms.

Experiment [5] deals with Methylosinus trichosporium OB3b (NRRL B-11,196). The experiment is described as follows: Stoichiometry of the epoxidation of propylene by a cell-suspension. The format is cell-based. Particulars: 3 min., 3.1 mg. protein, 3.6 μmoles propylene. As for the experimental part: As a comparison the stoichiometry of the epoxidation of propylene by a cell-suspension of Methylosinus trichosporium OB3b (NRRL B-11,196) was determined as follows. The reaction mixture (3.0 ml.) contained 0.05 M sodium phosphate buffer, pH 7.0 and 3.6 μmoles of propylene. The reaction was initiated by the injection of 0.1 ml. of cell-suspension (3.1 mg. protein). A correction was made for the endogenous consumption of oxygen. The amount of oxygen consumed during the reaction (3 min.) was determined polarographically with a Clark oxygen electrode. The propylene consumed and the propylene oxide formed was estimated by gas chromatography. The propylene consumed was 0.29 μmoles, the oxygen consumed was 0.30 μmoles and the propylene oxide formed was 0.28 μmoles.

Experiment [6] deals with P(40) particulate fraction of Methylosinus sp. (CRL-15, NRRL B-11,202). The experiment is described as follows: Stoichiometry of propylene epoxidation and methane hydroxylation by P(40) fraction. The format is biochemical. Particulars: 5.0 μmoles substrate. As to the method: The particulate P(40) fraction of Methylosinus sp. (CRL-15, NRRL B-11,202) was used to determine the stoichiometry of hydroxylation and epoxidation reactions. The stoichiometry of methane or propylene-dependant NADH oxidation, oxygen consumption and product formation was approximately 1:1:1 Table XIV. This is consistent with methane or propylene oxygenation being catalyzed by a mono-oxygenase.
^a Under identical condition of reaction, the estimation of NADH
oxidized was carried out spectrophotometrically, the estimation of oxygen
consumed was measured polarographically, and estimation of product formed
was carried out by gas chromatography.

As to `C=CCCCC` [hexene-1], the “epoxide product from the substrate” value in experiment [1] is listed as “did not produce any detectable epoxide product”.
As to `C=CCCC` [1-Pentene], the “Rate of Product Formation” value in experiment [2] is given as 0 μ moles/hr/mg of protein. Also, the “epoxide product from the substrate” value in experiment [1] is listed as “did not produce any detectable epoxide product”.
Turning to `NC(=O)C1=CN([C@@H]2O[C@H](COP(=O)(O)OP(=O)(O)OC[C@H]3O[C@@H](n4cnc5c(N)ncnc54)[C@H](OP(=O)(O)O)[C@@H]3O)[C@@H](O)[C@H]2O)C=CC1` [NADPH, reduced nicotinamide adenine dinucleotide phosphate], the “electron carrier for epoxidation of propylene and hydroxylation of methane” value in experiment [3] is listed as “could also be utilized”. Also, the “electron donor in place of NADH for hydroxylation of n-alkanes” value in experiment [4] was “could also be utilized”.
In the case of `C=CC` [Propylene], in experiment [5], the oxygen consumed was 0.30 µmol, the propylene consumed stood at 0.29 µmol and the propylene oxide formed is 0.28 µmol. Moreover, the “Propylene Oxide Produced” value in experiment [2] (substrate competition, gas phase as labelled) came out at 4.3 μmoles/hr/mg. protein. Also, in experiment [2], the “Rate of Product Formation” value was 4.1 μ moles/hr/mg of protein. In addition, the “inhibition of the conversion of the n-alkanes to the sec. alcohols” value in experiment [4] is “inhibit”. Besides, in experiment [6], the “NADH Oxidized” value was determined as 5.0 µmol, the “O2 Consumed” value came to 4.8 µmol and the “Product formed” value turned out to be 4.5 µmol.
